The text below walks through data of patent publication US12529162B2, “Method of screening for peptides capable of binding to a ubiquitin protein ligase (E3)” (Phoremost Limited, priority 2019, dated 2026).

One assay concerns the target TNKS2 (residues 20-800) (Homo sapiens, UniProt Q9H2K2). To be noted: read-out: affinity of binding to TNKS2; fluorescence polarization; Guettler et al., 2011; cited from earlier work. (In general: Polarisation of emitted light reports the rotation of a fluorescent probe.)
A further assay deals with T1, TNKS2 (Homo sapiens, UniProt Q9H2K2).
T1 construct: endogenous in cells; host or cells: HEK293A
T1 sequence (Q9H2K2 1-1166): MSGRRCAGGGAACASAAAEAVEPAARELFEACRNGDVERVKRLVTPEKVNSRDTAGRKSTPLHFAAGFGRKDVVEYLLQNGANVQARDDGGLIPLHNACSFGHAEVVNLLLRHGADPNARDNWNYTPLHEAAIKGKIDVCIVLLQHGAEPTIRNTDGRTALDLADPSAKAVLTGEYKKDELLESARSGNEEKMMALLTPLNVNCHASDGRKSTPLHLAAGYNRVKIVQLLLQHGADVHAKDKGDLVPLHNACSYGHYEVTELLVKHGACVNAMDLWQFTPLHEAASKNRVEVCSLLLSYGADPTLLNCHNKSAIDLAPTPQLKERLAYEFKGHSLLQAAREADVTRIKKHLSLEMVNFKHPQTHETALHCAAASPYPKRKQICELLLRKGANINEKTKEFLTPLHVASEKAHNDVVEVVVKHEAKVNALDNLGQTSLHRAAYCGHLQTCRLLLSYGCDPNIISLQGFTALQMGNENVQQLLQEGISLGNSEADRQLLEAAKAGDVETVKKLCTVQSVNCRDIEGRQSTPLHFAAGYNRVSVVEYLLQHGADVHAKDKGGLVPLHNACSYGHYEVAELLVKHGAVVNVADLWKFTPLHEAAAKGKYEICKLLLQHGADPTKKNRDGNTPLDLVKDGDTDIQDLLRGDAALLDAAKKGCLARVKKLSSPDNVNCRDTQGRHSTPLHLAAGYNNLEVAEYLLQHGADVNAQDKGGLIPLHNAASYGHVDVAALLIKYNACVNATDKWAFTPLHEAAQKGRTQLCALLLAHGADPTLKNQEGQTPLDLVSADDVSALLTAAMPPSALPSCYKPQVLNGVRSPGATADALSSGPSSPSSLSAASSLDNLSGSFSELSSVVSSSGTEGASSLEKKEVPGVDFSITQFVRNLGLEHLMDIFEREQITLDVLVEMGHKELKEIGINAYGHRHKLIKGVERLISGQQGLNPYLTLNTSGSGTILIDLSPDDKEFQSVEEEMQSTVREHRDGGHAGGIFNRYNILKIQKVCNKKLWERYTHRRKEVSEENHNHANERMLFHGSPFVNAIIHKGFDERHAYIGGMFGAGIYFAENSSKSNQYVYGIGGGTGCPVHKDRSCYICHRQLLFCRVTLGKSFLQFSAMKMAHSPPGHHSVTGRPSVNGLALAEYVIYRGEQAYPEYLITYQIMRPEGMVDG
Put plainly: Western blot of TNKS2 levels in HEK293A cells transfected with PROTAC-encoding plasmids. The class given is cell-based. Conditions: 20 hours after transfection, actin loading control. The text has this: A DNA construct encoding for the TNKS2 binding sequence (3BP2^410-425) at the N-terminus as set out in SEQ ID NO: 1, a GGGGSS linker as set out in SEQ ID NO: 3, and the E3 binding sequence (ALAPYIP) as set out in SEQ ID NO: 2, at the C-terminus was cloned into pMOST25 vector (the full PROTAC as set out in SEQ ID NO: 4). pMOST25 is a lentiviral vector based on pCDH EF1a (System Biosciences) where the promoter was swapped for CMV and the MCS replaced by a new cassette with flanking NGS primer sites. Control constructs which (i) lacked the ALAPYIP E3 binding sequence (3BP2^410-425) as set out in SEQ ID NO: 5 or (ii) contained a double mutation which is known to disrupt HIF1α-VHL interaction (3BP2^410-425-ALAAAIP) as set out in SEQ ID NO: 6 were similarly cloned (Table 1). Neither control construct can bind to the E3 ligase and therefore there should be no change in the level of TNKS2 when cells are transduced with these. HEK293A cells were collected 20 hours after transfection, and levels of TNKS2 target protein were assessed by Western Blot (FIG. 2). Membranes were probed with primary antibodies against TNKS2 (Abcam ab155545), or actin (Abcam ab179467) as a loading control. […]
20 hours after transfection, cells were harvested and analyzed by Western Blotting. […]

Assay [1] relates to GFP. Conditions: HEK293A. On the procedure:
Plasmids encoding for GFP alone (control), or GFP tagged with one of the validated candidate peptide hits from the screening method, Hit (#1) (see Example 5) or Hit (#2), were transduced into HEK293A cells using lentivirus. Cells expressing tagged GFP were either untreated (DMSO treatment only) or treated with the proteasome inhibitor MG132 for 4 hours, after which they were harvested and analyzed by Western Blotting. Membranes were probed with primary antibodies against GFP (CST #2555), or actin (Abcam ab179467) as a loading control. After the addition of HRP-conjugated secondary antibodies, protein signals were detected by chemiluminescence (FIG. 9).

Assay [2] deals with GFP. To be noted: HEK293A. The method, then:
GFP was used as the target (test protein) in this study.
GFP-peptide expressing cells were either untreated (DMSO treatment only; ‘Peptide+vehicle’) or treated with the proteasome inhibitor MG132 (10 μM in DMSO, for 4 h) (‘Peptide+MG132’), and were then analyzed by FACS for GFP levels (FIG. 8).
The source holds these as a separate data set.

“Also recorded” adds a separate entry of the source. Where two headings read alike, the source gives them in different places.

For LPHLQRSPPDGQSFRS, the Kd at TNKS2 (residues 20-800) was 500 nM. As for “MGLPHLQRSPPDGQSFRSLEGGGGSSAALAPYIP (3BP2(410-425)- ALAPYIP peptide) [3BP2^410-425-ALAPYIP]”, the “levels of TNKS2 by Western blot” value in the assay with TNKS2 is “led to TNKS2 degradation; also recorded: markedly decreased levels of TNKS2”. Same read-out and setting: in the case of “MGLPHLQRSPPDGQSFRSLEGGGGSSLDPETGEYL (3BP2(410-425) - LDPETGEYL peptide) [3BP2^410-425-LDPETGEYL]” it was “unaffected”.

As for “MQNNPLTSGLEPSPPQCDYIRPSLTGKFAGNPWYYGKVTRHQAEMA [Hit (#1)]”, the “GFP levels by Western blot” value in the assay on GFP [1] (MG132 treated 4 hours) is reported as “GFP levels were restored”. For the same sequence, the “GFP levels by Western blot compared to GFP control” value with GFP [1] (absence of MG132) is recorded as “almost complete depletion of GFP”. Besides, the “GFP levels by FACS compared to no peptide control” value in the assay on GFP [2] (Peptide+MG132 (10 μM, 4 h)) is recorded as “restored GFP levels back to that of the ‘no peptide control’ cells”; in the assay on GFP [2] (Peptide+vehicle (DMSO only)) it was “marked degradation of GFP”.
